Test results as given in ChEMBL document CHEMBL5291721, “A preclinical secondary pharmacology resource illuminates target-adverse drug reaction associations of marketed drugs” (Nat Commun, 2023).

What was measured:
[1] = target: T1, Amine oxidase [flavin-containing] A (Homo sapiens, UniProt P21397); type: functional
T1 sequence (P21397 whole entry): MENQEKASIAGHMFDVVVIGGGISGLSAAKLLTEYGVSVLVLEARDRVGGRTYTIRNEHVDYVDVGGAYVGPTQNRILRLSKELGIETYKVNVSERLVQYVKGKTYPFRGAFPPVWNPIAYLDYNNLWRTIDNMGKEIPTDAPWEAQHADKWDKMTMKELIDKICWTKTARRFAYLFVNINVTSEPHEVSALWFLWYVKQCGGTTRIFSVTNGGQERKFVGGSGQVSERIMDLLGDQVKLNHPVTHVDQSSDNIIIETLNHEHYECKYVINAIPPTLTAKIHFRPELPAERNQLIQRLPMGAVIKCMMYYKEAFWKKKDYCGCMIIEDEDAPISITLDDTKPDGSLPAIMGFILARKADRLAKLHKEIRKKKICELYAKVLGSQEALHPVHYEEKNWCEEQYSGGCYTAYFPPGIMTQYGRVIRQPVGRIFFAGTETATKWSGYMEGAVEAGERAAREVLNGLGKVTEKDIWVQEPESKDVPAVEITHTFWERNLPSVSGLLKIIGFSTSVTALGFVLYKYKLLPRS

D(1A) dopamine receptor = D(1A) dopamine receptor (Homo sapiens, UniProt P21728)
Sequence of D(1A) dopamine receptor (P21728 whole entry): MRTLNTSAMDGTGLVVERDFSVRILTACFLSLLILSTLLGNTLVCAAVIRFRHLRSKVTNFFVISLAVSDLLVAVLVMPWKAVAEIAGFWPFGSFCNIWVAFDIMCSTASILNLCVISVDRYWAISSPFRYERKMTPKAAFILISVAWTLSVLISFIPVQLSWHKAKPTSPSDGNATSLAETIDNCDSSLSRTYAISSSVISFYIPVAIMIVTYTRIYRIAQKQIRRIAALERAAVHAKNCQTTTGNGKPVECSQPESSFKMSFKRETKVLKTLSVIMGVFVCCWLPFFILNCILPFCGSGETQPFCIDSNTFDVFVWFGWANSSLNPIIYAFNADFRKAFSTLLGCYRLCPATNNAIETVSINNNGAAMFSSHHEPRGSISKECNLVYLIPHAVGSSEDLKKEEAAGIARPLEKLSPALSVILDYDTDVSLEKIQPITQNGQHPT

Mu-type opioid receptor = Mu-type opioid receptor (Homo sapiens, UniProt P35372)
Sequence of Mu-type opioid receptor (P35372 whole entry): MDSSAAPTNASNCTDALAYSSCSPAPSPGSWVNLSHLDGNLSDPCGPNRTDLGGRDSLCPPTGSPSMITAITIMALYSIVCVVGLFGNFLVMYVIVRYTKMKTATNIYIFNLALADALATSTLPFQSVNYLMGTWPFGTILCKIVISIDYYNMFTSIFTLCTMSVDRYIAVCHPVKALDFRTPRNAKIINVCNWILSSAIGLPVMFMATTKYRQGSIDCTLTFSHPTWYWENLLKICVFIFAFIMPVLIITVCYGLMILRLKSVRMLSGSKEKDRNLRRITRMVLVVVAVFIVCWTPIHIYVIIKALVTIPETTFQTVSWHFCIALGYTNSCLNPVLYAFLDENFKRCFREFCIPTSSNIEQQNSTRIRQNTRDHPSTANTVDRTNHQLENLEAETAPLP

[2] = target: 3',5'-cyclic-AMP phosphodiesterase 4A (Homo sapiens, UniProt P27815); type: functional
Sequence of 3',5'-cyclic-AMP phosphodiesterase 4A (P27815 whole entry): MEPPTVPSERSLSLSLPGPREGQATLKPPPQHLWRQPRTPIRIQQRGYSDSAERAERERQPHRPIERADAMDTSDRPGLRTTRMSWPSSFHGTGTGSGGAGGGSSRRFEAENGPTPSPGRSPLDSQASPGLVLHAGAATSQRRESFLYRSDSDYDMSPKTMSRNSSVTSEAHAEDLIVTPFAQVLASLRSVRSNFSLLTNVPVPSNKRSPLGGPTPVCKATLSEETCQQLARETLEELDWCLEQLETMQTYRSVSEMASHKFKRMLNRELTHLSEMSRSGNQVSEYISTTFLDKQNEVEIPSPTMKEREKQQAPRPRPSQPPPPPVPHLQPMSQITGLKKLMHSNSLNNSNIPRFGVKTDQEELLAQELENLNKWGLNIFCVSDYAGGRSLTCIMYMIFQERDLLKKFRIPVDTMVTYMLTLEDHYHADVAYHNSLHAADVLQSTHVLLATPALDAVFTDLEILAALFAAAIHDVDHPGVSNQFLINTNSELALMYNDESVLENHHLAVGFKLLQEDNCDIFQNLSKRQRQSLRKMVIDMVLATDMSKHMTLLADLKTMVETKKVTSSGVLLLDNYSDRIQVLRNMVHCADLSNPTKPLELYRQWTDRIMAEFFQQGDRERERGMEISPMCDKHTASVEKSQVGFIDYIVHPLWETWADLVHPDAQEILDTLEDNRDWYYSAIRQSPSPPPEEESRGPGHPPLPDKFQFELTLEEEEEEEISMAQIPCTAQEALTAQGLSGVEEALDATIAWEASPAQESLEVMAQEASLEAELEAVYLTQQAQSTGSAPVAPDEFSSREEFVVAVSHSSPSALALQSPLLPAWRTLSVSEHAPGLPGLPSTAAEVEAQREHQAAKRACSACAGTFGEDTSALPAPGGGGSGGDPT

[3] = target: T2, Alpha-1A adrenergic receptor (Homo sapiens, UniProt P35348); type: functional, cell-based
T2 sequence (P35348 whole entry): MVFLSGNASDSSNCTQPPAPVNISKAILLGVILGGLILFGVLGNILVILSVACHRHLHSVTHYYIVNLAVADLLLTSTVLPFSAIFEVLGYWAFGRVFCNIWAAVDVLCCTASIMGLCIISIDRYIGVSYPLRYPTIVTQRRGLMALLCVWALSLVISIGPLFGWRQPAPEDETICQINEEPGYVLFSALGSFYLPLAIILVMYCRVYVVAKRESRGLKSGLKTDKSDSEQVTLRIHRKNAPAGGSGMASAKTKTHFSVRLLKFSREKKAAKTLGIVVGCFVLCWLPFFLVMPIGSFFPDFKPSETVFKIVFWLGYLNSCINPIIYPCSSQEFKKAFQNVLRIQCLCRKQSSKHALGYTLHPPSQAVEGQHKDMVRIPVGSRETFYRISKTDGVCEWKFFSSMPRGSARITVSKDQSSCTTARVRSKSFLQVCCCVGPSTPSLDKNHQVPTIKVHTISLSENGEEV

[4] = target: T3, Muscarinic acetylcholine receptor M2 (Homo sapiens, UniProt P08172)
T3 sequence (P08172 whole entry): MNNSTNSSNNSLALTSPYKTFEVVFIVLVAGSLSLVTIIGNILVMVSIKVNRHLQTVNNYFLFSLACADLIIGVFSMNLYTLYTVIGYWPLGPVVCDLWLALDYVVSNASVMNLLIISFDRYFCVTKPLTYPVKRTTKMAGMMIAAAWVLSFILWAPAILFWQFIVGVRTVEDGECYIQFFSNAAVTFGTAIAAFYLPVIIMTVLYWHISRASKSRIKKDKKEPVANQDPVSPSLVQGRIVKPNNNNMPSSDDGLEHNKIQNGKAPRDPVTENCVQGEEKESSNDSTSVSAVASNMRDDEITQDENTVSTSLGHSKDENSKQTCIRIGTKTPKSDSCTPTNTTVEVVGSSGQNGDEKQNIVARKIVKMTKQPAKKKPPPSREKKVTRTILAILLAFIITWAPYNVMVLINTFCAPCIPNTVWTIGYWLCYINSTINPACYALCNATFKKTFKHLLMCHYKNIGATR

[5] = target: Gamma-aminobutyric acid receptor subunit alpha-1 (Rattus norvegicus, UniProt P62813)
Sequence of Gamma-aminobutyric acid receptor subunit alpha-1 (P62813 whole entry): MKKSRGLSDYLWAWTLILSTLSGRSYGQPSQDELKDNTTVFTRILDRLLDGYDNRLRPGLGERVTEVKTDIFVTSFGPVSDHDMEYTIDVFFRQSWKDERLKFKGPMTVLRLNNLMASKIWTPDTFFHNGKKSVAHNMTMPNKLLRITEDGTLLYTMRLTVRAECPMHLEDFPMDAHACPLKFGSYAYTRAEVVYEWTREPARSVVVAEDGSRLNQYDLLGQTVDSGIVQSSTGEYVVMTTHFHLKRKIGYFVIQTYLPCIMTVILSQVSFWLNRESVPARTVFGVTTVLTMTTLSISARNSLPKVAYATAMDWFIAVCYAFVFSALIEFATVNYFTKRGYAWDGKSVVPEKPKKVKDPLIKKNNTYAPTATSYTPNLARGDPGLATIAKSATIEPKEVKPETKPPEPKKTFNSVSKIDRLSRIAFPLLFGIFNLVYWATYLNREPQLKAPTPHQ

Endothelin-1 receptor = target: T4, Endothelin-1 receptor (Homo sapiens, UniProt P25101)
T4 sequence (P25101 whole entry): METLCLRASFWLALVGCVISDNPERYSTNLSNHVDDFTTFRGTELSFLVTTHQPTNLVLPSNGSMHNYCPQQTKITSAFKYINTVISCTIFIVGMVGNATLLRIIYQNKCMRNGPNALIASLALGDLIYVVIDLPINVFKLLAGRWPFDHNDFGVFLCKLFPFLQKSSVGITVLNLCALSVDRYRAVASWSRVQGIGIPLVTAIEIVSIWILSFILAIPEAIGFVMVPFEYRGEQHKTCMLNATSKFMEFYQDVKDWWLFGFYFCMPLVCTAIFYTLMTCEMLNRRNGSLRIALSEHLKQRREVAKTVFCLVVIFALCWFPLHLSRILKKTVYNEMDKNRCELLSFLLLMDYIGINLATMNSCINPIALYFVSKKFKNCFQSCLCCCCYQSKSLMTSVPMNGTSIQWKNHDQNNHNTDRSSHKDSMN

Glucocorticoid receptor = target: T5, Glucocorticoid receptor (Homo sapiens, UniProt P04150)
T5 sequence (P04150 whole entry): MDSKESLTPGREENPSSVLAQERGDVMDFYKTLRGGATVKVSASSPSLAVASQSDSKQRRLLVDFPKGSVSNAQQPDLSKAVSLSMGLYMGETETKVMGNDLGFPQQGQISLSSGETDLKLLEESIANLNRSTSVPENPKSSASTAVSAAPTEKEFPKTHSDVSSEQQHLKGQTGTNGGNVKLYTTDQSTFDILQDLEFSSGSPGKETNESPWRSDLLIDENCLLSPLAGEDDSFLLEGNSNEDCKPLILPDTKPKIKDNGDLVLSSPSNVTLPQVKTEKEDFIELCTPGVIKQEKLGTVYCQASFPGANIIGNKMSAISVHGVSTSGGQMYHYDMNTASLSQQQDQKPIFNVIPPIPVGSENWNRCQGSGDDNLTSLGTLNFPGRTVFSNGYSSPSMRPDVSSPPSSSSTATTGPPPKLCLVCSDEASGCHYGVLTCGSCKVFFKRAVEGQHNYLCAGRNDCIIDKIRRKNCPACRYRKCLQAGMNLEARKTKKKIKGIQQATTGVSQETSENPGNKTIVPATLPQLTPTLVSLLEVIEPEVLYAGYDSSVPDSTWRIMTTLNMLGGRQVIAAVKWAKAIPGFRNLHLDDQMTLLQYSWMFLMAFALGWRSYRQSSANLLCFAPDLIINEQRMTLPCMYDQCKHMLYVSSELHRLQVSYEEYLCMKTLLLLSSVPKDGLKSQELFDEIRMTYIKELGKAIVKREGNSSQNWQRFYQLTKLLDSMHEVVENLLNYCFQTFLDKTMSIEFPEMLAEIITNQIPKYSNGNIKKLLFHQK

[6] = target: 5-hydroxytryptamine receptor 2A (Homo sapiens, UniProt P28223); type: functional, cell-based
Sequence of 5-hydroxytryptamine receptor 2A (P28223 whole entry): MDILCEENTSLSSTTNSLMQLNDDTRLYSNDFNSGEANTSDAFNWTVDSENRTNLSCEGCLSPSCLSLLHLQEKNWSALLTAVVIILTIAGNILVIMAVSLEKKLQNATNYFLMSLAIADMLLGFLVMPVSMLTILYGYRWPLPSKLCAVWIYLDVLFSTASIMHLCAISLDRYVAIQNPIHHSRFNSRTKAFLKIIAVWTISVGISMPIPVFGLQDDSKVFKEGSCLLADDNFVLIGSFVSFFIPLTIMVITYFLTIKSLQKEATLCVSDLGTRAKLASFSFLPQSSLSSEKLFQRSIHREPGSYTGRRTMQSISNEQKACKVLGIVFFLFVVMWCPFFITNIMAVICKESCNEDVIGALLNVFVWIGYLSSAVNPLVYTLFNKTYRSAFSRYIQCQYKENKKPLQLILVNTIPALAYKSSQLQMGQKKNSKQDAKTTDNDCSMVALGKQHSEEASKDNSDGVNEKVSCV
Note: assay procedure not described here.

Structure (SMILES)	AC50 [1] [µM]	AC50 (D(1A) dopamine receptor) [µM]	AC50 (Mu-type opioid receptor) [µM]	AC50 [2] [µM]	AC50 [3] [µM]	AC50 [4] [µM]	AC50 [5] [µM]	AC50 (Endothelin-1 receptor) [µM]	AC50 (Glucocorticoid receptor) [µM]	AC50 [6] [µM]
CN(C)S(=O)(=O)c1ccc2c(c1)N(CCCN1CCC(CCO)CC1)c1ccccc1S2 [PIPOTIAZINE]	> 30	0.0201	3.4	> 30	0.0032	1.72	–	–	–	–
C[C@]12CC[C@@H]3c4ccc(O)cc4CC[C@H]3[C@@H]1C[C@@H](O)[C@@H]2O [ESTRIOL]	> 30	> 30	> 30	> 30	> 30	> 30	–	–	–	–
O=C(CCNNC(=O)c1ccncc1)NCc1ccccc1 [NIALAMIDE]	> 30	> 30	> 30	> 30	> 30	> 30	–	–	–	–
CC(=O)N[C@@H]1[C@@H](O)[C@H](O)[C@@H](CO)O[C@H]1O [N-ACETYLGLUCOSAMINE]	> 30	> 30	> 30	> 30	> 30	> 30	–	–	–	–
COCc1c(C(C)C)nc(C(C)C)c(/C=C/[C@@H](O)C[C@@H](O)CC(=O)O)c1-c1ccc(F)cc1 [CERIVASTATIN]	> 30	> 30	> 30	21.5	25.2	> 30	–	–	–	–
COC(c1ccccc1)(c1ccccc1)[C@H](Oc1nc(C)cc(C)n1)C(=O)O [AMBRISENTAN]	> 30	> 30	> 30	> 30	> 30	> 30	–	–	–	–
C[N+](C)(C)CCO [CHOLINE]	> 30	> 30	> 30	> 30	> 30	> 30	–	–	–	–
CC(C)(S)[C@@H](N)C(=O)O [PENICILLAMINE]	> 30	> 30	> 30	> 30	> 30	> 30	–	–	–	–
CCC(=O)NCC[C@@H]1CCc2ccc3c(c21)CCO3 [RAMELTEON]	> 30	> 30	> 30	> 30	> 30	> 30	–	–	–	–
CCOC(=O)[C@H](CCc1ccccc1)N[C@@H](C)C(=O)N1[C@H](C(=O)O)C[C@H]2CCCC[C@@H]21 [TRANDOLAPRIL]	> 30	> 30	> 30	> 30	> 30	> 30	–	–	–	–
CC(C)Nc1ncccn1 [ISAXONINE]	> 30	> 30	> 30	> 30	> 30	> 30	–	–	–	–
OCCN1C[C@H](O)[C@@H](O)[C@H](O)[C@H]1CO [MIGLITOL]	> 30	> 30	> 30	> 30	> 30	> 30	–	–	–	–
Oc1c(Cl)cc(Cl)c2cccnc12 [CHLOROXINE]	> 30	> 30	> 30	> 30	> 30	> 30	–	–	–	–
Cc1cc(C#N)cc(C)c1Oc1nc(Nc2ccc(C#N)cc2)nc(N)c1Br [ETRAVIRINE]	> 30	4.53	19.1	> 30	> 3	22.6	–	–	–	–
CCCCN1C[C@H](O)[C@@H](O)[C@H](O)[C@H]1CO	–	–	–	–	–	–	> 30	> 30	> 30	> 30
CN(C)CCn1nnnc1SCC1=C(C(=O)O)N2C(=O)[C@@H](NC(=O)Cc3csc(N)n3)[C@H]2SC1 [CEFOTIAM]	> 30	> 30	> 30	> 30	> 30	> 30	–	–	–	–
CC(=O)NCCCS(=O)(=O)O [ACAMPROSATE]	–	–	–	–	–	–	> 30	> 30	> 30	> 30
Cc1nc([N+](=O)[O-])cn1-c1ccc([N+](=O)[O-])cc1 [NITREFAZOLE]	–	–	–	–	–	–	> 30	> 30	> 30	> 30
CN(C)[C@@H](c1cccc(O)c1)[C@H]1CCCC[C@H]1O [CIRAMADOL]	> 30	> 30	0.0059	> 30	> 30	> 30	–	–	–	–
COc1cc2nc(N(C)CCCNC(=O)C3CCCO3)nc(N)c2cc1OC (stereo unspecified) [ALFUZOSIN]	–	–	–	–	–	–	> 30	> 30	> 30	> 30
CCC1=C(C)CN(C(=O)NCCc2ccc(S(=O)(=O)NC(=O)N[C@H]3CC[C@H](C)CC3)cc2)C1=O [GLIMEPIRIDE]	> 30	> 30	> 30	> 30	> 30	> 30	–	–	–	–
N[C@@H](C(=O)N[C@@H]1C(=O)N2C(C(=O)O)=C(Cl)CC[C@H]12)c1ccccc1 [LORACARBEF ANHYDROUS]	> 30	> 30	> 30	> 30	> 30	> 30	–	–	–	–
CN(C)CC(c1ccc(O)cc1)C1(O)CCCCC1 (stereo unspecified) [DESVENLAFAXINE]	> 30	> 30	28.4	> 30	> 30	> 30	–	–	–	–
CC(C)(C)NC[C@H](O)COc1ccccc1C1CCCC1 [PENBUTOLOL]	> 30	27.8	11.9	> 10	2.54	> 30	–	–	–	–
